According to publication PMC7763263, “Parameters for Irreversible Inactivation of Monoamine Oxidase” (Molecules, 2020):
Where two headings read alike, the source gives them in different places. Marks after values point to notes of the source that are not given here.

Experiments:
[1] = set-up: method as in PMID 16848670; details: depression; cited from earlier work
[2] = biological target: T1, MAO-A (Homo sapiens, UniProt P21397); assay: Activity remaining or recovered after anaerobic incubation with inactivator; format: biochemical; set-up: made in house; host or cells: Saccharomyces cerevisiae
T1 sequence (P21397 1-527): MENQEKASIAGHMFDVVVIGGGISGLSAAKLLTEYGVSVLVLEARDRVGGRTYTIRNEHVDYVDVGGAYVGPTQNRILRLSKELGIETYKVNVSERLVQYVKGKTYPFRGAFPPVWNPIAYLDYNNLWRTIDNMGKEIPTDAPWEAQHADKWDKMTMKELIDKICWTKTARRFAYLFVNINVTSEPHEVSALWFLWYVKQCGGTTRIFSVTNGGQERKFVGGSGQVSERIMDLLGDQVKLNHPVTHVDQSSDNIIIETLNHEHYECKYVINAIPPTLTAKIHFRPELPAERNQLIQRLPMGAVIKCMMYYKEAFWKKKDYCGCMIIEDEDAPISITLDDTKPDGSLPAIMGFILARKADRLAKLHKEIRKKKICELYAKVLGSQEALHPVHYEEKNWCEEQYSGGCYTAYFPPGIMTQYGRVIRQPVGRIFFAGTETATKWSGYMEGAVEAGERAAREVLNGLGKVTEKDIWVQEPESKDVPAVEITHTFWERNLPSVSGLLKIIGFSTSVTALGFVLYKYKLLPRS
Description: MAO-A was made anaerobic by cycling with vacuum and argon. […] After the admission of oxygen to the cuvette, the 420 nm absorbance increased rapidly, accompanied by loss of activity.
In order to find a cause for the 600 nm absorbance, we considered whether oxidation could occur at either carbon adjacent to the amine nitrogen in MAO-A. (MAO-B is inactivated by F2MPA [19], so presumably, the normal allenyl imine product is formed by oxidation at the carbon between the amine and the propargyl group, CαP.) The alternative furfuryl imine product that would result from oxidation at the carbon on the other side of the amine nitrogen (between the amine and the furan ring, CαF) is shown in Scheme 2. Chemical analysis was attempted to detect the putative products of oxidation and molecular modeling to explore the interactions of F2MPA with MAO-A and MAO-B.

[3] = biological target: T1, MAO-A; set-up: purchased Sigma-Aldrich (Dorset, UK); host or cells: insect cells (membranes); method as in PMID 27977122; details: cited from earlier work
[4] = biological target: T1, MAO-A; assay: Partition ratio by long-term incubation; format: biochemical; set-up: made in house; host or cells: Saccharomyces cerevisiae; details: incubation at 30 °C up to 10 days
[5] = biological target: T2, human MAO-B (Homo sapiens, UniProt P27338); details: cited from earlier work
T2 construct: purchased Sigma-Aldrich (Dorset, UK); host or cells: insect cells (membranes)
T2 sequence (P27338 1-520): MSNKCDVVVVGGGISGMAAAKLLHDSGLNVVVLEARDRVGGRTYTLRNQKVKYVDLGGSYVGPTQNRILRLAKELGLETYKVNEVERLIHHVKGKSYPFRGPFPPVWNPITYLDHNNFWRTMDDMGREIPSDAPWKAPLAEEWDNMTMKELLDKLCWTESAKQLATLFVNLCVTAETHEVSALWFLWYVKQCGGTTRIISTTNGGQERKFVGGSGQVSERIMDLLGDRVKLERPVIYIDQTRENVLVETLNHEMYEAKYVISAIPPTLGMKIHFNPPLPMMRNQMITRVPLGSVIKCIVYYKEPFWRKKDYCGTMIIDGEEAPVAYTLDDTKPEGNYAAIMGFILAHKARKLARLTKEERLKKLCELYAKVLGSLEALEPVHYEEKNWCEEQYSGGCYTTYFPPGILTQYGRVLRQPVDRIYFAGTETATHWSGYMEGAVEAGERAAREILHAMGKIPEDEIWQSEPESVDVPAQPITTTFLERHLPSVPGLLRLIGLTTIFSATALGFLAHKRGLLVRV

[6] = biological target: T3, purified human MAO-A (Homo sapiens, UniProt P21397); assay: Anaerobic spectral kinetics of flavin reduction and adduct formation (stopped-flow / timed spectra); format: biochemical; details: for rate of anaerobic reduction of FAD (absorbance decrease at 495 nm) / rate of adduct formation (absorbance increase at 410 nm): purified MAO-A
T3 construct: made in house; host or cells: Saccharomyces cerevisiae
T3 sequence (P21397 1-527): T1 sequence (P21397 1-527)
Experimental: Purified human MAO-A was dialyzed against 50 mM HEPES pH 7.5 for 1 h and concentrated to at least 40 μM before loading into the rapid-mixing device syringes. MAO-A (40 μM) was mixed with an equal volume of 50 mM HEPES pH 7.5 containing excess inactivating compound in the stopped-flow spectrophotometer (Applied Photophysics SX20) at 30 °C. For anaerobic experiments, the system was flushed with 10 mM dithionite before rinsing well with buffer containing 30 mM glucose, 1 U/mL glucose oxidase, and 24 U/mL catalase. Both the MAO-A and the compound to be added were flushed with argon before the addition of 30 mM glucose, 1 U/mL glucose oxidase, and 24 U/mL catalase to ensure anaerobiosis during the experiment. Absorbance changes were measured in triplicate at three wavelengths (410, 456, and 495 nm). The absorbance acquisition rate was set at 1000 Hz for the interval 0–0.5 s and 4 Hz for the interval 0.5–1000 s. The absorbance changes were analyzed using single or double exponential fits in the built-in software as appropriate.
Figure 7 Time courses for absorbance changes in MAO-A incubated anaerobically with propargylamine inactivators.

[7] = biological target: T2, human MAO-B; details: ratio of IC50 without/with 30 min preincubation; ref Malcomson et al. [40]; cited from earlier work
[8] = biological target: T1, MAO-A; set-up: purchased Sigma-Aldrich (Dorset, UK); host or cells: insect cells (membranes); details: ratio of IC50 without/with 30 min preincubation; ref Malcomson et al. [40]; cited from earlier work
[9] = biological target: T2, human MAO-B; format: biochemical
Experimental: (§1) The IC50 determined after a fixed incubation time has become a routine way to compare inhibition by new inactivators, although both binding and the rate of inactivator oxidation influence the measurement.
(§2) The direct spectrophotometric assay using purified MAO-A (30–50 nM) was added last to a 1 mL final volume of 50 mM potassium phosphate pH 7.5 containing inhibitor (0–100 μM) and 0.3 mM kynuramine (equivalent to 2× KM). The increase in absorbance was followed at 314 nm in a Shimadzu UV-2101 spectrophotometer. The coupled assay in black 96-well plates (Eppendorf UK Ltd., Stevenage, UK) used tyramine, Ampliflu™ Red (AR), horseradish peroxidase (HRP) and membrane-bound human MAO-A and MAO-B purchased from Sigma-Aldrich (Dorset, UK). Final concentrations were 50 μM AR, 1 U/mL HRP, and 1 nM enzyme. The substrate was tyramine either at 2× KM (0.8 mM for MAO-A or 0.32 mM for MAO-B) for reversible binding or at 1 mM to assess remaining active MAO after incubation with the inactivators.

[10] = biological target: T1, MAO-A; assay: IC50 after 30 min preincubation, coupled assay with saturating substrate; format: biochemical; set-up: purchased Sigma-Aldrich (Dorset, UK); host or cells: insect cells (membranes); details: ratio of IC50 without/with 30 min preincubation
Experimental: as §1, §2

[11] = system: MAO; details: cited from earlier work
[12] = biological target: T1, MAO-A; details: read-out: MAO-A IC50 AR Assay; without preincubation, tyramine 2× KM (0.8 mM); mean ± SD of 2–4 experiments
Experimental: (§3) The binding of these mechanism-based inhibitors can be assessed by measuring the inhibition without preincubation, adding the enzyme last to the assay mixture with both substrate and inhibitor. […] The IC50 is not an absolute parameter, but rather is a comparative measure that depends on the type of inhibition and the substrate concentration.
as §2
(§4) Ki values were calculated using the global Michaelis–Menten analysis in PRISM from initial rate data for 6 substrate concentrations (tyramine) at 5 inhibitor concentrations.

[13] = biological target: T1, MAO-A; details: read-out: MAO-A Ki Direct; ref Esteban et al. [18]; cited from earlier work
[14] = biological target: T2, human MAO-B; format: biochemical; details: without preincubation, tyramine 2× KM (0.32 mM); mean ± SD of 2–4 experiments; read-out: MAO-B IC50 AR Assay
Experimental: as §3, §2, §4

[15] = biological target: T1, MAO-A; assay: Time-dependent inactivation, Kitz-Wilson analysis; format: biochemical; set-up: purchased Sigma-Aldrich (Dorset, UK); host or cells: insect cells (membranes)
Experimental: (§5) Rates (as relative fluorescence units per second, rfu/s) were analyzed as the log of the fractional activity remaining compared to control against time to obtain kobs.

[16] = biological target: T2, human MAO-B; assay: Time-dependent inactivation, Kitz-Wilson analysis; format: biochemical; details: inactivation constant
Experimental: as §5

[17] = Figure S4, anaerobic stopped-flow, 30 C

SMILES: NNCCc1ccccc1 [Phenelzine]
- patient response rates [1]: over 50%

SMILES: C#CCN(C)Cc1ccco1 [F2MPA, N-(furan-2-ylmethyl)-N-methylprop-2-yn-1-amine]
- activity retained ([2]; MAO-A incubated anaerobically […] with 0.5 mM): 7%
- activity restored by overnight aerobic dialysis ([2]; after […] anaerobic incubation with 0.5 mM): 88%
- MAO-A kinact [3]: 0.087 min⁻¹
- MAO-A kinact/KI [3]: 0.0005 min^−1μM^−1
- Ki ([3]; inactivation constant): 187 µM
- partition ratio [4]: > 1000
- MAO-B kinact [5]: 0.61 min⁻¹
- MAO-B kinact/KI [5]: 0.0045 min^−1μM^−1
- Ki ([5]; inactivation constant): 135 µM
- time for completion of biphasic decrease in absorbance at 495 nm ([6]; F2MPA 2 mM, MAO-A […] μM, anaerobic): more than 21 h
- rate of anaerobic reduction of FAD (absorbance decrease at 495 nm) ([6]; anaerobic): 0.0034 ± 0.0009 min⁻¹

SMILES: N[C@H]1C[C@@H]1c1ccccc1 (racemic) [Tranylcypromine]
- MAO-B Enhancement [7]: 54.7 ^a
- patient response rates [1]: over 50%
- MAO-A Enhancement [8]: 100 ^a

SMILES: C#CCN(C)Cc1ccccc1 [Pargyline]
- MAO-B Enhancement ([9]; ratio of IC50 without/with 30 min preincubation): 292
- k, 410 nm (adduct) [6, 17]: 0.0043 s⁻¹
- k, 485 nm (reduction) [6, 17]: 0.0047 s⁻¹
- rate of adduct formation (absorbance increase at 410 nm) ([6]; anaerobic): 0.26 ± 0.03 min⁻¹
- rate of anaerobic reduction of FAD (absorbance decrease at 495 nm) ([6]; anaerobic): 0.28 ± 0.02 min⁻¹
- MAO-A Enhancement [10]: 48

SMILES: N[C@H]1C[C@@H]1c1ccccc1 [1S,2R-trans-2-phenylcyclopropylamine]
- times more potent in vitro than the other enantiomer [11]: 60 times

SMILES: C#CCN(C)[C@H](C)Cc1ccccc1 [Selegiline, (2R)-N-methyl-1-phenyl-N-prop-2-ynylpropan-2-amine]
- rate of adduct formation (absorbance increase at 410 nm) ([6]; anaerobic): 0.016 ± 0.003 min⁻¹
- rate of anaerobic reduction of FAD (absorbance decrease at 495 nm) ([6]; anaerobic): 0.019 ± 0.002 min⁻¹
- MAO-A Enhancement [10]: 357

SMILES: C#CCN(C)Cc1cc2cc(OCCCC3CCN(Cc4ccccc4)CC3)ccc2n1C [ASS234, N-[[5-[3-(1-benzylpiperidin-4-yl)propoxy]-1-methylindol-2-yl]methyl]-N-methylprop-2-yn-1-amine]
- IC50 [12]: 0.033 ± 0.003 µM
- Ki [13]: 0.053 ± 0.014 µM
- IC50 [14]: 3.2 ± 0.41 µM
- IC50 ([9]; read-out: MAO-B IC50 after 30 min preincubation, human MAO in insect cell membranes, saturating substrate): 0.12 ± 0.02 µM
- Ki [15]: 0.045 µM
- rate of anaerobic reduction of FAD (absorbance decrease at 495 nm) ([6]; anaerobic): 3.36 min⁻¹
- MAO-A Enhancement [10]: 122
- Ki [16]: 1.74 µM
